From the NIST ThermoML archive (doi:10.1021/je100100n)
Numbers after ± are expanded uncertainties.

Tests used:
[1] = 101.3 kPa, Liquid
[2] = xn = mol fraction of the nth substance listed; conditions: 101 kPa, Liquid, x2 = 0

mass density ([1]; 288.15 K) | mass density ([1]; 298.15 K) | mass density ([1]; 313.15 K) | mass density ([1]; 328.15 K) | mass density ([2]; 288.15 K) | mass density ([2]; 298.15 K) | mass density ([2]; 313.15 K) | mass density ([2]; 328.15 K) | SMILES
805.6 ± 0.46 kg/m3 | 797.916 ± 0.47 kg/m3 | 786.069 ± 0.49 kg/m3 | 773.692 ± 0.51 kg/m3 | – | – | – | – | CC(C)CO [2-methyl-1-propanol]
813.77 ± 0.45 kg/m3 | 806.137 ± 0.46 kg/m3 | 794.488 ± 0.48 kg/m3 | 782.477 ± 0.49 kg/m3 | – | – | – | – | CCCCO [butan-1-ol]
1060.33 ± 0.27 kg/m3 | 1049.6 ± 0.26 kg/m3 | 1033.5 ± 0.23 kg/m3 | 1017.34 ± 0.2 kg/m3 | – | – | – | – | CCOC(=O)CC(=O)OCC [diethyl 1,3-propanedioate]
794.044 ± 0.48 kg/m3 | 785.489 ± 0.49 kg/m3 | 772.42 ± 0.51 kg/m3 | 758.958 ± 0.53 kg/m3 | – | – | – | – | CCO [ethanol]
796.406 ± 0.47 kg/m3 | 786.987 ± 0.49 kg/m3 | 772.74 ± 0.51 kg/m3 | 758.201 ± 0.53 kg/m3 | – | – | – | – | CO [methanol]
818.801 ± 0.44 kg/m3 | 811.465 ± 0.45 kg/m3 | 800.264 ± 0.47 kg/m3 | 788.737 ± 0.48 kg/m3 | – | – | – | – | CCCCCO [pentan-1-ol]
809.009 ± 0.46 kg/m3 | 800.973 ± 0.47 kg/m3 | 788.687 ± 0.48 kg/m3 | 775.974 ± 0.5 kg/m3 | – | – | – | – | CCCO [propan-1-ol]
789.342 ± 0.48 kg/m3 | 780.99 ± 0.5 kg/m3 | 767.922 ± 0.52 kg/m3 | 754.001 ± 0.54 kg/m3 | – | – | – | – | CC(C)O [propan-2-ol]
– | – | – | – | 789.342 ± 0.48 kg/m3 | 780.99 ± 0.5 kg/m3 | 767.922 ± 0.52 kg/m3 | 754.001 ± 0.54 kg/m3 | CC(C)O [propan-2-ol] + CCOC(=O)CC(=O)OCC
